Measured values reported in patent US7507860B2 (Pfizer Inc., priority 2004, dated 2009).
Positions count from the first letter of the chain named. Like-named read-outs stand apart in the source and are kept apart here.

Columns and labels:
[1] = target: T1, human androgen receptor (hAR) (Homo sapiens, UniProt P10275); experiment: Competitive binding analysis on baculovirus/Sf9 generated hAR extracts with 3H-DHT tracer; conditions: hAR extract, 1 nM 3H-DHT, one hour at 4° C, mean of multiple tests
T1 construct: made in house; host or cells: baculovirus/Sf9 insect cells (crude extract)
T1 sequence (P10275 1-920): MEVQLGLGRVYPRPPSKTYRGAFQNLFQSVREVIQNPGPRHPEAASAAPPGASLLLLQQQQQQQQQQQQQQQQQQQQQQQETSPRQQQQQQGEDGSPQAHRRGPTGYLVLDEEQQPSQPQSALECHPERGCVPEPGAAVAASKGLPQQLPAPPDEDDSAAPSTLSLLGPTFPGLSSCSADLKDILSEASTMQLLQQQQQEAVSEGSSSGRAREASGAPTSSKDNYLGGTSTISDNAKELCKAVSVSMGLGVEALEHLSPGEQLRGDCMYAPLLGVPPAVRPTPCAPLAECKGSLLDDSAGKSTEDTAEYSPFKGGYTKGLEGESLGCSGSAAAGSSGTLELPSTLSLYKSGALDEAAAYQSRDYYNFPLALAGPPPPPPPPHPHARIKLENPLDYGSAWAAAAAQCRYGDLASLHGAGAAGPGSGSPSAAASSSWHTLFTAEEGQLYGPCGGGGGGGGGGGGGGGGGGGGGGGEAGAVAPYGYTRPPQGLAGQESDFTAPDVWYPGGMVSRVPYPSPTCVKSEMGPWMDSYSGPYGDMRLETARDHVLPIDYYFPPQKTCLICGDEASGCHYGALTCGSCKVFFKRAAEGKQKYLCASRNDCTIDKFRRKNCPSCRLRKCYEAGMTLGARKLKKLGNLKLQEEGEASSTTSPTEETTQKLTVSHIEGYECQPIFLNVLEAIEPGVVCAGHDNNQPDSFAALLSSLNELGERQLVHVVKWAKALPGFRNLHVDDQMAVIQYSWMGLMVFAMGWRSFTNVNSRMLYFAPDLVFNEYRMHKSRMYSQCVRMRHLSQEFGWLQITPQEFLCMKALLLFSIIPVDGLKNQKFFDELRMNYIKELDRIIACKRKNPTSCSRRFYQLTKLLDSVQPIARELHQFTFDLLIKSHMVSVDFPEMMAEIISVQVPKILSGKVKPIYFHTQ
Method in brief: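 Baculovirus/Sf9-expressed hAR extract incubated with hydroxylapatite, 1 nM 3H-DHT and decreasing compound concentrations for 1 h at 4 °C, then washed three times to remove unbound tracer. Bound 3H-DHT compared with no-competitor maximum; affinity given as concentration inhibiting half of maximum binding, mean of multiple tests.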

androgen receptor = target: T2, androgen receptor (Homo sapiens, UniProt P10275); experiment: AR antagonist cell assay (MDA-MB453-MMTV clone 54-19 luciferase reporter, 100 pM DHT); format: cell-based
T2 sequence (P10275 1-920 Q868H): T1 sequence (P10275 1-920) with Q868H
Method in brief: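 MDA-MB453 cells stably carrying an MMTV-ARE firefly luciferase reporter were plated overnight at 10,000/well in phenol-red-free, charcoal-stripped serum medium. Cells were stimulated with 100 pM DHT (final) for 17 hr at 37 °C, and AR antagonism was read as luciferase signal; values are means of multiple tests.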

[2] = MDA-MB453-MMTV clone 54-19, inhibition of 100 pM DHT induction, 17 hr; mean of multiple tests; read-out: AR Cell IC50
[3] = read-out: AR Cell IC50; MDA-MB453-MMTV clone 54-19, inhibition of 100 pM DHT induction, 17 hr; mean of multiple tests

Compound | IC50 ([1]; read-out: AR Binding IC50) [nM] | IC50 (androgen receptor; [2]) [µM] | IC50 ([1]; AR Binding IC50 (nM)) [nM] | IC50 (androgen receptor; [3]) [µM]
CCC(COC)NC(=O)C(CC(C)C)Oc1ccc(C#N)c(C(F)(F)F)c1 (stereo not shown) [Example 82, 2-(4-Cyano-3-trifluoromethyl-phenoxy)-4-methyl-pentanoic acid (1-methoxymethyl-propyl)-amide] | 218 | > 1 |  | 
CSCCNC(=O)C(CC(C)C)Oc1ccc(C#N)c(C(F)(F)F)c1 (stereo not shown) [Example 83, 2-(4-Cyano-3-trifluoromethyl-phenoxy)-4-methyl-pentanoic acid (2-methylsulfanyl-ethyl)-amide] | 85 | > 1 |  | 
Cc1c(O)cccc1NC(=O)C(CC(C)C)Oc1ccc(C#N)c(C(F)(F)F)c1 (stereo not shown) [Example 84, 2-(4-Cyano-3-trifluoromethyl-phenoxy)-4-methyl-pentanoic acid (3-hydroxy-2-methyl-phenyl)-amide] | 112 | > 1 |  | 
CCCOCCCNC(=O)C(CC(C)C)Oc1ccc(C#N)c(C(F)(F)F)c1 (stereo not shown) [Example 85, 2-(4-Cyano-3-trifluoromethyl-phenoxy)-4-methyl-pentanoic acid (3-propoxy-propyl)-amide] | 117 | > 1 |  | 
CCN(CCOC)C(=O)C(CC(C)C)Oc1ccc(C#N)c(C(F)(F)F)c1 (stereo not shown) [Example 86, 2-(4-Cyano-3-trifluoromethyl-phenoxy)-4-methyl-pentanoic acid ethyl(2-methoxyethyl)-amide] | 25 | > 1 |  | 
COc1ccccc1NC(=O)C(CC(C)C)Oc1ccc(C#N)c(C(F)(F)F)c1 (stereo not shown) [Example 87, 2-(4-Cyano-3-trifluoromethyl-phenoxy)-4-methyl-pentanoic acid (2-methoxy-phenyl)-amide] | 119 | > 1 |  | 
CCCCC(Oc1ccc(C#N)c(C(F)(F)F)c1)C(=O)NCc1ccccc1 (stereo not shown) [Example 91, 2-(4-Cyano-3-trifluoromethyl-phenoxy)-hexanoic acid benzylamide] | 70 | 0.535 |  | 
CC(C)C(Oc1ccc(C#N)c(C(F)(F)F)c1)C(=O)NCc1ccccc1 (stereo not shown) [Example 92, N-Benzyl-2-(4-Cyano-3-trifluoromethyl-phenoxy)-3-methyl-butyramide] | 348 | 0.562 |  | 
CCC(Oc1ccc(C#N)c(C(F)(F)F)c1)C(=O)NCc1ccccc1 (stereo not shown) [Example 93, N-Benzyl-2-(4-Cyano-3-trifluoromethyl-phenoxy)-butyramide] |  | 0.563 | 485 | 
CC(C)C[C@@H](Oc1ccc(C#N)c(C(F)(F)F)c1)C(=O)NCc1ccccc1 [Example 94, (R)-2-(4-Cyano-3-trifluoromethyl-phenoxy)-4-methyl-pentanoic acid benzylamide] |  | 0.14 | 66 | 
CCC[C@@H](Oc1ccc(C#N)c(C(F)(F)F)c1)C(=O)NCc1ccccc1 [Example 95, (R)-2-(4-Cyano-3-trifluoromethyl-phenoxy)-pentanoic acid benzylamide] |  | 0.032 | 126 | 
CCC[C@@H](Oc1ccc(C#N)c(C(F)(F)F)c1)C(=O)NCc1ccccc1C [Example 96, (R)-2-(Cyano-3-trifluoromethyl-phenoxy)-pentanoic acid 2-methyl-benzylamide] |  | 0.138 | 95 | 
CCCC(Oc1ccc(C#N)c(C(F)(F)F)c1)C(=O)NCCc1c[nH]c2ccc(OC)cc12 (stereo not shown) [Example 97, 2-(4-Cyano-3-trifluoromethyl-phenoxy)-pentanoic acid [2-(5-methoxy-1H-indol-3-yl)-ethyl]-amide] | 111 |  |  | 0.026
CCCC(Oc1ccc(C#N)c(Cl)c1)C(=O)OCC (stereo not shown) [Example 99, 2-(3-Chloro-4-cyano-phenoxy)-pentanoic acid ethyl ester] | 31 | 0.749 |  | 
CCCC(Oc1ccc(C#N)c(Cl)c1)C(=O)NCCc1c[nH]c2ccccc12 (stereo not shown) [Example 101, 2-(3-Chloro-4-cyano-phenoxy)-pentanoic acid [2-(1H-indol-3-yl)-ethyl]-amide] | 53 | 0.038 |  | 
CCCC(Oc1ccc(C#N)c(Cl)c1)C(=O)NCc1ccccc1 (stereo not shown) [Example 102, 2-(3-Chloro-4-cyano-phenoxy)-pentanoic acid benzylamide] | 125 |  |  | 0.027
CCCC(Oc1ccc(C#N)c(Cl)c1)C(=O)NCCc1ccc(O)cc1 (stereo not shown) [Example 103, 2-(3-Chloro-4-cyano-phenoxy)-pentanoic acid [2-(4-hydroxy-phenyl)-ethyl]-amide] | 140 |  |  | 0.087
CCC[C@H](Oc1ccc(C#N)c(Cl)c1)C(=O)NCc1ccccc1 [Example 104, (S)-2-(3-Chloro-4-cyano-phenoxy)-pentanoic acid benzylamide] | 241 |  |  | 0.007
CCC[C@H](Oc1ccc(C#N)c(Cl)c1)C(=O)NCCc1ccc(O)cc1 [Example 105, (S)-2-(3-Chloro-4-cyano-phenoxy)-pentanoic acid [2-(4-hydroxy-phenyl)ethyl]amide] | 241 |  |  | 0.088
CCC[C@H](Oc1ccc(C#N)c(Cl)c1)C(=O)NCCc1c[nH]c2ccccc12 [Example 106, (S)-2-(3-Chloro-4-cyano-phenoxy)-pentanoic acid [2-(1H-indol-3-yl)-ethyl]-amide] | 47 | 0.003 |  | 
CCC[C@H](Oc1ccc(C#N)c(C(F)(F)F)c1)C(=O)NCc1cccc(C)c1 [Example 107, (S)-2-(4-Cyano-3-trifluoromethyl-phenoxy)-pentanoic acid-3-methyl-benzylamide] | 93 | < 0.00032 |  | 
CCC[C@H](Oc1ccc(C#N)c(C(F)(F)F)c1)C(=O)NCCc1c[nH]c2ccccc12 [Example 108, (S)-2-(4-Cyano-3-trifluoromethyl-phenoxy)-pentanoic acid [2-(1H-indol-3-yl)ethyl]-amide] | 21 | < 0.00032 |  | 
CCC[C@H](Oc1ccc(C#N)c(C(F)(F)F)c1)C(=O)NCCc1ccc(O)cc1 [Example 109] | 251 | 0.058 |  | 
CC(C)C[C@@H](Oc1ccc(C#N)c(C(F)(F)F)c1)C(=O)NCCc1ccc(O)cc1 [Example 111] | 148 | 0.164 |  | 
CCCC(Oc1ccc(C#N)c(C(F)(F)F)c1)C(=O)NC(C)c1ccc(OC)cc1 (stereo not shown) [Example 113, 2-(4-Cyano-3-trifluoromethyl-phenoxy)-pentanoic acid [1-(4-methoxy-phenyl)-ethyl]-amide] | 654 | 0.681 |  | 
CCSCCNC(=O)C(CC(C)C)Oc1ccc(C#N)c(C(F)(F)F)c1 (stereo not shown) [Example 114, 2-(4-Cyano-3-trifluoromethyl-phenoxy)-4-methyl-pentanoic acid (2-ethyl sulfanyl-ethyl)-amide] | 102 | 0.727 |  | 
